Reference: patent US20200361871A1 (Enterprise Therapeutics Ltd., priority 2018, published 2020)

Target: human TMEM16A (TMEM16Aabc variant) (Homo sapiens, UniProt Q5XXA6, DEL476-501, form not given)
Test: Automated whole-cell patch clamp (Qpatch) TMEM16A potentiator assay in FRT cells stably expressing human TMEM16A
Assay type: cell-based
Details: for % Potentiation @ 3.33 μM Avg: 3.33 μM solution of test compound, percentage increase of baseline TMEM16A current; for EC50: calculated EC50, Qpatch TMEM16A current at +70 mV
Procedure, shortened: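 FRT cells stably expressing human TMEM16Aabc were recorded by automated whole-cell patch clamp, with intracellular Ca2+ buffered for ~EC20 activation, holding −70 mV and step to +70 mV at 0.05 Hz. Compound was applied cumulatively, 5 min per concentration. Peak current increase as % of baseline was fitted to give EC50 and maximum efficacy.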

Chain of human TMEM16A (TMEM16Aabc variant) (Q5XXA6 with tags, fused parts or gaps DEL476-501): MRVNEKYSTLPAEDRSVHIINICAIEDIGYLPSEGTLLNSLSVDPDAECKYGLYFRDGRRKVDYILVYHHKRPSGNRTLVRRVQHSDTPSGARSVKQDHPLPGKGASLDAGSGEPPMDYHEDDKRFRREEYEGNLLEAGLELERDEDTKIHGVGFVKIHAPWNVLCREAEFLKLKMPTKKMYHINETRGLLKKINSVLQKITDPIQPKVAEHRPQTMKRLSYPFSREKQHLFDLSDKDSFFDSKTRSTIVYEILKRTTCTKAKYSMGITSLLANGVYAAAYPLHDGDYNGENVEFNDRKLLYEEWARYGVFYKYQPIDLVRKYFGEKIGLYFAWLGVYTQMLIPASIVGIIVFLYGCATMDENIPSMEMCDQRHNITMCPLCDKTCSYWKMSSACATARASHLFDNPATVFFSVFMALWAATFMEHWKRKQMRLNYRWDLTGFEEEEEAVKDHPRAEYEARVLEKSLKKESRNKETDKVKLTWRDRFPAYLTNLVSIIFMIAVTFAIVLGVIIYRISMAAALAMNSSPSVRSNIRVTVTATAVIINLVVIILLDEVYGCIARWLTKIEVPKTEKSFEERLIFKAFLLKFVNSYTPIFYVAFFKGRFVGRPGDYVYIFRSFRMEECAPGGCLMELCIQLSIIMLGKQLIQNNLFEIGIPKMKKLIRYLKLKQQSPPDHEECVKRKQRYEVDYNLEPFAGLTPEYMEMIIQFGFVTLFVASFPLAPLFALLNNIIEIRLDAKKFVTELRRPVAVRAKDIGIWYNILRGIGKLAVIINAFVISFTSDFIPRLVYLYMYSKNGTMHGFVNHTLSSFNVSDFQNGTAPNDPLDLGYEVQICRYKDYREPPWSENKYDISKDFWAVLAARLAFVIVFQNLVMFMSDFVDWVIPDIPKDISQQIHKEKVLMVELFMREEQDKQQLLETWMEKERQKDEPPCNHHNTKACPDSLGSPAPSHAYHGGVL

Row | SMILES | % Potentiation @ 3.33 μM Avg [%] | EC50 [nM]
1 | CC(C)(C)NC(=O)c1cc(NC(=O)CC2C3CC4CC(C3)CC2C4)ccn1 (stereo not drawn) [Example 5.1, 4-[[2-(2-Adamantyl)acetyl]amino]-N-tert-butyl-pyridine-2-carboxamide] | 140 | 870
2 | COc1cc(F)ccc1CC(=O)Nc1ccnc(C(=O)NC(C)(C)C)c1 [Example 5.2, N-tert-Butyl-4-[[2-(4-fluoro-2-methoxy-phenyl)acetyl]amino]pyridine-2-carboxamide] | 63 | –
3 | CC(C)(C)NC(=O)c1cc(NC(=O)Cc2cc(Cl)ccc2F)ccn1 [Example 5.3, N-tert-Butyl-4-[[2-(5-chloro-2-fluoro-phenyl)acetyl]amino]pyridine-2-carboxamide] | 152 | 880
4 | CC(C)(C)NC(=O)c1cc(NC(=O)Cc2ccco2)ccn1 [Example 5.4, N-tert-Butyl-4-[[2-(2-furyl)acetyl]amino] pyridine-2-carboxamide] | 57 | –
5 | CC(C)(C)NC(=O)c1cc(NC(=O)Cc2cccc(Cl)c2)ccn1 [Example 5.5, N-tert-Butyl-4-[[2-(3-chlorophenyl)acetyl]amino]pyridine-2-carboxamide] | 132 | 720
6 | CC(C)(C)NC(=O)c1cc(NC(=O)Cc2c[nH]c3ccccc23)ccn1 [Example 5.6, N-tert-Butyl-4-[[2-(1H-indol-3-yl)acetyl]amino]pyridine-2-carboxamide] | 101 | 150
7 | Cc1ccccc1CC(=O)Nc1ccnc(C(=O)NC(C)(C)C)c1 [Example 5.7, N-tert-Butyl-4-[[2-(o-tolyl)acetyl]amino]pyridine-2-carboxamide] | 131 | 1230
8 | CC(C)(C)NC(=O)c1cc(NC(=O)Cc2ccc(Cl)c(Cl)c2)ccn1 [Example 5.8, N-tert-Butyl-4-[[2-(3,4-dichlorophenyl)acetyl]amino]pyridine-2-carboxamide] | 116 | 460
9 | CC(C)(C)NC(=O)c1cc(NC(=O)Cc2cccc(F)c2)ccn1 [Example 5.9, N-tert-Butyl-4-[[2-(3-fluorophenyl)acetyl]amino]pyridine-2-carboxamide] | 126 | 1130
10 | COc1ccc(Cl)cc1CC(=O)Nc1ccnc(C(=O)NC(C)(C)C)c1 [Example 5.10, N-tert-Butyl-4-[[2-(5-chloro-2-methoxy-phenyl)acetyl]amino]pyridine-2-carboxamide] | 78 | 3770
11 | Cc1ccc(CC(=O)Nc2ccnc(C(=O)NC(C)(C)C)c2)cc1 [Example 5.11, N-tert-Butyl-4-[[2-(p-tolyl)acetyl]amino]pyridine-2-carboxamide] | 89 | 170
12 | CC(C)(C)NC(=O)c1cc(NC(=O)Cc2ccccc2F)ccn1 [Example 5.12, N-tert-Butyl-4-[[2-(2-fluorophenyl)acetyl]amino]pyridine-2-carboxamide] | 100 | 760
13 | CC(C)(C)NC(=O)c1cc(NC(=O)Cc2ccc(F)cc2)ccn1 [Example 5.13, N-tert-Butyl-4-[[2-(4-fluorophenyl)acetyl]amino]pyridine-2-carboxamide] | 94 | 1140
14 | Cc1cccc(CC(=O)Nc2ccnc(C(=O)NC(C)(C)C)c2)c1 [Example 5.14, N-tert-Butyl-4-[[2-(m-tolyl)acetyl]amino]pyridine-2-carboxamide] | 128 | 760
15 | CC(C)(C)NC(=O)c1cc(NC(=O)Cc2ccc3ncoc3c2)ccn1 [Example 5.15, 4-[[2-(1,3-Benzoxazol-6-yl)acetyl]amino]-N-tert-butyl-pyridine-2-carboxamide] | 87 | –
16 | CC(C)(C)NC(=O)c1cc(NC(=O)Cc2cccnc2Cl)ccn1 [Example 5.16, N-tert-Butyl-4-[[2-(2-chloro-3-pyridyl)acetyl]amino]pyridine-2-carboxamide] | 110 | –
17 | CC(C)(C)NC(=O)c1cc(NC(=O)Cc2c(Cl)cccc2Cl)ccn1 [Example 5.17, N-tert-Butyl-4-[[2-(2,6-dichlorophenyl)acetyl]amino]pyridine-2-carboxamide] | 94 | 650
18 | CC(C)(C)NC(=O)c1cc(NC(=O)Cc2ccc(Cl)c(F)c2)ccn1 [Example 5.18, N-tert-Butyl-4-[[2-(4-chloro-3-fluoro-phenyl)acetyl]amino]pyridine-2-carboxamide] | 79 | 460
19 | CC(C)(C)NC(=O)c1cc(NC(=O)Cc2cc(Cl)cc(Cl)c2)ccn1 [Example 5.19, N-tert-Butyl-4-[[2-(3,5-dichlorophenyl)acetyl]amino]pyridine-2-carboxamide] | 75 | 1850

Row | SMILES | % Potentiation @ 3.33 μM Avg [%] | EC50 [nM]
20 | CC(C)(C)NC(=O)c1cc(NC(=O)Cc2ccccc2Cl)ccn1 [Example 5.20, N-tert-Butyl-4-[[2-(2-chlorophenyl)acetyl]amino]pyridine-2-carboxamide] | 221 | 570
21 | CC(C)(C)NC(=O)c1cc(NC(=O)Cc2ccc(O)c(Cl)c2)ccn1 [Example 5.21, N-tert-Butyl-4-[[2-(3-chloro-4-hydroxy-phenyl)acetyl]amino]pyridine-2-carboxamide] | 172 | 510
22 | CC(C)(C)NC(=O)c1cc(NC(=O)C2CCc3ccccc32)ccn1 (stereo not drawn) [Example 5.22, N-tert-Butyl-4-(indane-1-carbonylamino)pyridine-2-carboxamide] | 94 | –
23 | CC(C)(C)NC(=O)c1cc(NC(=O)Cc2ccc3nccnc3c2)ccn1 [Example 5.23, N-tert-Butyl-4-[(2-quinoxalin-6-ylacetyl)amino]pyridine-2-carboxamide] | 144 | 1200
24 | CC(C)(C)NC(=O)c1cc(NC(=O)Cc2ccc3ccccc3c2)ccn1 [Example 5.24, N-tert-Butyl-4-[[2-(2-naphthyl)acetyl]amino]pyridine-2-carboxamide] | 189 | 140
25 | CC(C)(C)NC(=O)c1cc(NC(=O)C2COc3ccccc32)ccn1 (stereo not drawn) [Example 5.25, N-tert-Butyl-4-(2,3-dihydrobenzofuran-3-carbonylamino)pyridine-2-carboxamide] | 67 | –
26 | CC(C)(C)NC(=O)c1cc(NC(=O)C2CCCCc3ccccc32)ccn1 (stereo not drawn) [Example 5.26, N-tert-Butyl-4-(6,7,8,9-tetrahydro-5H-benzo[7]annulene-5-carbonylamino) pyridine-2-carboxamide] | 110 | 1200
27 | CC(C)(C)NC(=O)c1cc(NC(=O)C2CCCc3ccccc32)ccn1 (stereo not drawn) [Example 5.27, N-tert-Butyl-4-(tetralin-1-carbonylamino) pyridine-2-carboxamide] | 84 | –
28 | CC(C)(C)NC(=O)c1cc(NC(=O)Cc2ccc3ncccc3c2)ccn1 [Example 5.29, N-tert-Butyl-4-[[2-(6-quinolyl)acetyl]amino]pyridine-2-carboxamide] | 190 | 860
29 | CC(C)(C)NC(=O)c1cc(NC(=O)Cc2ccc3c(c2)OCCO3)ccn1 [Example 5.31] | 145 | –
30 | C#CC(C)(C)NC(=O)c1cc(NC(=O)CC2OCCc3ccccc32)ccn1 (stereo not drawn) [Example 5.33, N-(1,1-Dimethylprop-2-ynyl)-4-[(2-isochroman-1-ylacetyl)amino]pyridine-2-carboxamide] | 49 | –
31 | C#CC(C)(C)NC(=O)c1cc(NC(=O)CC2CCC(F)(F)CC2)ccn1 [Example 5.34, 4-[[2-(4,4-Difluorocyclohexyl)acetyl]amino]-N-(1,1-dimethylprop-2-ynyl)pyridine-2-carboxamide] | 185 | 640
32 | C#CC(C)(C)NC(=O)c1cc(NC(=O)Cc2ccc(C(F)(F)F)cc2)ccn1 [Example 5.35, N-(1,1-Dimethylprop-2-ynyl)-4-[[2-[4-(trifluoromethyl)phenyl]acetyl]amino]pyridine-2-carboxamide] | 106 | 180
33 | C#CC(C)(C)NC(=O)c1cc(NC(=O)Cc2c[nH]nc2C(F)(F)F)ccn1 [Example 5.36, N-(1,1-Dimethylprop-2-ynyl)-4-[[2-[3-(trifluoromethyl)-1H-pyrazol-4-yl]acetyl]amino] pyridine-2-carboxamide] | 44 | 60
34 | C#CC(C)(C)NC(=O)c1cc(NC(=O)Cc2cccc(C(F)(F)F)c2)ccn1 [Example 5.37, N-(1,1-Dimethylprop-2-ynyl)-4-[[2-[3-(trifluoromethyl)phenyl]acetyl]amino]pyridine-2-carboxamide] | 117 | 150
35 | C#CC(C)(C)NC(=O)c1cc(NC(=O)Cc2ccccc2C(F)(F)F)ccn1 [Example 5.38, N-(1,1-Dimethylprop-2-ynyl)-4-[[2-[2-(trifluoromethyl)phenyl]acetyl]amino]pyridine-2-carboxamide] | 231 | 150
36 | C#CC(C)(C)NC(=O)c1cc(NC(=O)CN2CCOc3ccccc32)ccn1 [Example 5.39, 4-[[2-(2,3-Dihydro-1,4-benzoxazin-4-yl)acetyl]amino]-N-(1,1-dimethylprop-2-ynyl)pyridine-2-carboxamide] | 147 | –
37 | CC(C)(C)NC(=O)c1cc(NC(=O)Cc2cc(C#N)ccc2O)ccn1 [Example 6, N-tert-Butyl-4-[[2-(5-cyano-2-hydroxy-phenyl)acetyl]amino]pyridine-2-carboxamide] | 162 | 1140
38 | CC(C)(C)C(C)(C)NC(=O)c1cccc(NC(=O)Cc2cc(Cl)ccc2O)c1 [Example 7, 3-[[2-(5-Chloro-2-hydroxy-phenyl)acetyl]amino]-N-(1,1,2,2-tetramethylpropyl) benzamide] | 153 | 650
